For data set [1], the system named is Trypanosoma cruzi. Description: Inhibition of Trypanosoma cruzi Maracay epimastigotes after 24 hrs. The data set is classed as functional, organism-based.
For data set [2], the system named is Trypanosoma cruzi. Description: Inhibition of Trypanosoma cruzi Maracay epimastigotes after 48 hrs. The data set is classed as functional, organism-based.
The test system of data set [3] is Trypanosoma cruzi. Description: Inhibition of Trypanosoma cruzi Maracay epimastigotes after 72 hrs. The data set is classed as functional, organism-based.
Data set [4] in a line: Toxicity against Vero cells after 72 hrs. Type of data set: cell-based. The note with it: Chlorocebus sabaeus (African green monkey).
The test system of data set [5] is Trypanosoma cruzi. Description: Inhibition of rate of infection with Trypanosoma cruzi Maracay metacyclic form in Vero cells at 5 ug/mL after 2 days. The data set is classed as functional. Also noted: scale not given: the % may be the effect or the level left.
Data set [6] concerns Trypanosoma cruzi. In words: Inhibition of rate of infection with Trypanosoma cruzi Maracay metacyclic form in Vero cells at 5 ug/mL after 8 days. Type of data set: functional. The note with it: 192 h.
The subject of data set [7] is Trypanosoma cruzi. In words: Reduction of Trypanosoma cruzi Maracay amastigotes infection in Vero cells at 5 ug/Ml after 8 days relative to control. Type of data set: functional. Also on record: scale not given: the % may be the effect or the level left.
Data set [8] has as its system Trypanosoma cruzi. In words: Reduction of Trypanosoma cruzi Maracay trypomastigote infection in Vero cells. Type of data set: functional. Also noted: scale not given: the % may be the effect or the level left.
Data set [9] has as its system Trypanosoma cruzi. In words: Inhibition of Fe-SOD in Trypanosoma cruzi Maracay at 10 ug/mL.
In data set [10] the test system is Trypanosoma cruzi. Description: Inhibition of Fe-SOD in Trypanosoma cruzi Maracay at 25 ug/mL.
The species named for data set [11] is Homo sapiens. In words: Inhibition of Cu-Zn SOD in human erythrocytes at 1 ug/mL. The data set is classed as cell-based.
The species entered for data set [12] is Homo sapiens. In words: Inhibition of Cu-Zn SOD in human erythrocytes at 10 ug/mL. The data set is classed as cell-based.
Data set [13] is filed under the species Homo sapiens. In words: Inhibition of Cu-Zn SOD in human erythrocytes at 25 ug/mL. The data set is classed as cell-based.
Data set [14] concerns Trypanosoma cruzi. In words: Inhibition of Fe-SOD in Trypanosoma cruzi Maracay at 1 ug/mL.

In brackets after ≈: the same amount, converted by molar mass.

The IC50 is the concentration that inhibits the measured activity by half. For orientation: inhibition means how much of the control response was suppressed. `c1ccc(COCCCNc2nnc(NCCCOCc3ccccn3)c3cc4ccccc4cc23)nc1`: the IC50 in [1] came to 56.8 µg/mL (≈ 112 µM); in data set [2], 12.8 µg/mL (≈ 25.3 µM); in [3], 3.25 µg/mL (≈ 6.39 µM). The compound further came in with an IC50 at 72 h in data set [4] of 6.25 µg/mL (≈ 12.3 µM). Besides, the Activity is given as 35% in data set [5], 44% in data set [7] and 74% in data set [8]. The compound also had an inhibition at 5 µg/mL in data set [6] of 68%. Also, the inhibition in data set [9] amounted to 68%; in data set [10] it was 75%; in [11], 0%; in data set [12], 7%; in data set [13], 11%; in [14], 64%.

For `NCCOCCNc1nnc(NCCOCCN)c2cc3ccccc3cc12`, the results for the 50% inhibitory concentration (IC50) in data set [2] and in data set [3] were 15.6 µg/mL (≈ 40.6 µM) and 12 µg/mL (≈ 31.3 µM), respectively. Besides, in [4], the IC50 at 72 h was 67.3 µg/mL (≈ 175 µM). This compound also showed an inhibition at 5 µg/mL in data set [6] of 57%. For the same compound, the values for the Activity in [7] and in [8] were 43% and 65%, respectively. In addition, the inhibition in data set [9] was 73%; in [10], 100%; in data set [11], 0%; in data set [12], 11%; in data set [13], 17%; in data set [14], 48%.

As to `O=C(Cn1ccnc1[N+](=O)[O-])NCc1ccccc1` [BENZNIDAZOLE], in data set [4], the IC50 at 72 h turned out to be 3.53 µg/mL (≈ 13.6 µM).

Regarding `OCCOCCNc1nnc(NCCOCCO)c2cc3ccccc3cc12`, the IC50 was 75.4 µg/mL (≈ 195 µM) in data set [1], 62.6 µg/mL (≈ 162 µM) in data set [2] and 30.6 µg/mL (≈ 79.2 µM) in data set [3]. It took 93.5 µg/mL (≈ 242 µM) to reach half-maximal inhibition in [4] (IC50 at 72 h). Also, the inhibition in data set [9] was 34%; in data set [10] it was 53%; in [11] it was 0%; in [12], 0%; in data set [13], 0%; in data set [14], 27%.

(Values after ChEMBL document CHEMBL1142905, “1,4-Bis(alkylamino)benzo[g]phthalazines able to form dinuclear complexes of Cu(II) which as free ligands behave as SOD inhibitors and show efficient in vitro activity against Trypanosoma cruzi” (Bioorg Med Chem, 2007).)
